Results as given in patent publication US20170233414A1, “DERIVATIVES OF BODIPY” (OREGON HEALTH & SCIENCE UNIVERSITY, priority 2016, published 2017).

test: Fluorescence properties and quantum yield measurements of the BAA library; assay type: physicochemical; design: FWHM (full-width-at half max): unit not given here; conditions: anhydrous DMSO
Description: General Instruments. Synthesized sample purification was performed with an Agilent 1260 Infinity HPLC utilizing a C18 column (150mm×21.2 mm). MS (HRMS, ESI) spectra data was collected with an Agilent 6244 TOF LC/MS with diode array detector VL+ and C18 column (4.6 mm×50 mm). Absorbance and fluorescence data were measured on a SpectraMax M5 Microplate reader. NMR spectra, ^1H and ^13C, were recorded on a Bruker ARK400 spectrometer. BAA microscopy screening in cells for organelle specificity and signal-to-background ratio was completed with an Axio Zeiss Light Microscope and 63× oil immersion objective.
Fluorescence Properties and Quantum Yield Measurements. Spectroscopic characterizations were performed in anhydrous DMSO in polystyrene 96 well plate. Analysis included the maximum absorbance wavelength, maximum fluorescence emission wavelength, full-width-at half max, and quantum yield. Quantum yields (φfl) were determined by comparing the area under the emission spectrum of the BAA compound to a reference fluorophore solution at three concentrations using equation 1, where Grad represents the gradient from the plots of integrated fluorescence intensity vs absorbance at three concentrations and q is the refractive index of the solvent. Fluorescein in 0.1 M NaOH (φfl=0.91)^3 was the reference for samples with a max absorbance up to 510 nm, where an excitation of 470 nm was used with the emission integrated between 490 to 800 nm. Rhodamine B in ethanol (φfl=0.70) was the reference for samples with a max absorbance between 511-595 nm, where an excitation of 525 nm was used with the emission integrated between 545 to 800 nm. Cresyl violet in methanol (φfl=0.54)^4 was the reference for samples with a max absorbance above 595 nm, where an excitation of 570 nm was used with the emission integrated between 590 to 800 nm.

Row | SMILES | Stokes Shift [nm]
1 | CC1=CC(/C=C/c2cc(Cl)ccc2Cl)=[N+]2C1=Cc1ccc(/C(=C\c3cc(Cl)ccc3Cl)CC(=O)O)n1[B-]2(F)F [BAA-29b] | 11
2 | CC1=CC(C=Cc2cn(CCC(=O)O)c3ccccc23)=[N+]2C1=Cc1ccc(CCC(=O)O)n1[B-]2(F)F [BAA-30a] | 36
3 | CC1=CC(C=Cc2cc(F)ccc2O)=[N+]2C1=Cc1ccc(C(=Cc3cc(F)ccc3O)CC(=O)O)n1[B-]2(F)F [BAA-31b] | 12
4 | CC1=CC(C=Cc2ccc(Oc3ccc([N+](=O)[O-])cc3)cc2)=[N+]2C1=Cc1ccc(CCC(=O)O)n1[B-]2(F)F [BAA-32a] | 10
5 | CC1=CC(C=Cc2ccc(Br)cc2S(C)(=O)=O)=[N+]2C1=Cc1ccc(CCC(=O)O)n1[B-]2(F)F [BAA-33a] | 12
6 | CC1=CC(C=Cc2cnc(-c3ccc(Cl)cc3)s2)=[N+]2C1=Cc1ccc(C(=Cc3cnc(-c4ccc(Cl)cc4)s3)CC(=O)O)n1[B-]2(F)F [BAA-34b] | 11
7 | CC1=CC(C=Cc2ccccc2Oc2ccc(C#N)cc2)=[N+]2C1=Cc1ccc(C(=Cc3ccccc3Oc3ccc(C#N)cc3)CC(=O)O)n1[B-]2(F)F [BAA-35b] | 9
8 | CC1=CC(C=Cc2ccc(OCc3sccc3C#N)cc2)=[N+]2C1=Cc1ccc(C(=Cc3ccc(OCc4sccc4C#N)cc3)CC(=O)O)n1[B-]2(F)F [BAA-36b] | 13
9 | CC1=CC(C=Cc2ccc(-c3cccnc3)cc2)=[N+]2C1=Cc1ccc(CCC(=O)O)n1[B-]2(F)F [BAA-37a] | 10
10 | CC1=CC(C=Cc2ccc(-c3cccnc3)cc2)=[N+]2C1=Cc1ccc(C(=Cc3ccc(-c4cccnc4)cc3)CC(=O)O)n1[B-]2(F)F [BAA-37b] | 9
11 | CC1=CC(C=Cc2cccc(N3CCCC3)n2)=[N+]2C1=Cc1ccc(CCC(=O)O)n1[B-]2(F)F [BAA-38a] | 2
12 | CC1=CC(C=Cc2ccc(Cl)nc2)=[N+]2C1=Cc1ccc(CCC(=O)O)n1[B-]2(F)F [BAA-39a] | 51
13 | COc1cc(C=CC2=[N+]3C(=Cc4ccc(C(=Cc5ccc(OCc6cccc(C(F)(F)F)c6)c(OC)c5)CC(=O)O)n4[B-]3(F)F)C(C)=C2)ccc1OCc1cccc(C(F)(F)F)c1 [BAA-40b] | 18
14 | COc1cc(C=CC2=[N+]3C(=Cc4ccc(C(=Cc5ccc(OCc6ccccc6C)c(OC)c5)CC(=O)O)n4[B-]3(F)F)C(C)=C2)ccc1OCc1ccccc1C [BAA-41b] | 20
15 | CC1=CC(C=Cc2ccc(OC(=O)c3ccc(Cl)cc3Cl)cc2)=[N+]2C1=Cc1ccc(CCC(=O)O)n1[B-]2(F)F [BAA-42a] | 10

same assay, conditions: anhydrous DMSO, polystyrene 96 well plate

Row | SMILES | λmax ABS [nm] | λmax EM [nm]
16 | CC1=CC(/C=C/c2cc(Cl)ccc2Cl)=[N+]2C1=Cc1ccc(/C(=C\c3cc(Cl)ccc3Cl)CC(=O)O)n1[B-]2(F)F [BAA-29b] | 569 | 580
17 | CC1=CC(C=Cc2cn(CCC(=O)O)c3ccccc23)=[N+]2C1=Cc1ccc(CCC(=O)O)n1[B-]2(F)F [BAA-30a] | 607 | 643
18 | CC1=CC(C=Cc2cc(F)ccc2O)=[N+]2C1=Cc1ccc(C(=Cc3cc(F)ccc3O)CC(=O)O)n1[B-]2(F)F [BAA-31b] | 576 | 588
19 | CC1=CC(C=Cc2ccc(Oc3ccc([N+](=O)[O-])cc3)cc2)=[N+]2C1=Cc1ccc(CCC(=O)O)n1[B-]2(F)F [BAA-32a] | 574 | 584
20 | CC1=CC(C=Cc2ccc(Br)cc2S(C)(=O)=O)=[N+]2C1=Cc1ccc(CCC(=O)O)n1[B-]2(F)F [BAA-33a] | 575 | 587
21 | CC1=CC(C=Cc2cnc(-c3ccc(Cl)cc3)s2)=[N+]2C1=Cc1ccc(C(=Cc3cnc(-c4ccc(Cl)cc4)s3)CC(=O)O)n1[B-]2(F)F [BAA-34b] | 570 | 581
22 | CC1=CC(C=Cc2ccccc2Oc2ccc(C#N)cc2)=[N+]2C1=Cc1ccc(C(=Cc3ccccc3Oc3ccc(C#N)cc3)CC(=O)O)n1[B-]2(F)F [BAA-35b] | 571 | 580
23 | CC1=CC(C=Cc2ccc(OCc3sccc3C#N)cc2)=[N+]2C1=Cc1ccc(C(=Cc3ccc(OCc4sccc4C#N)cc3)CC(=O)O)n1[B-]2(F)F [BAA-36b] | 579 | 592
24 | CC1=CC(C=Cc2ccc(-c3cccnc3)cc2)=[N+]2C1=Cc1ccc(CCC(=O)O)n1[B-]2(F)F [BAA-37a] | 568 | 578
25 | CC1=CC(C=Cc2ccc(-c3cccnc3)cc2)=[N+]2C1=Cc1ccc(C(=Cc3ccc(-c4cccnc4)cc3)CC(=O)O)n1[B-]2(F)F [BAA-37b] | 569 | 578
26 | CC1=CC(C=Cc2cccc(N3CCCC3)n2)=[N+]2C1=Cc1ccc(CCC(=O)O)n1[B-]2(F)F [BAA-38a] | 579 | 581
27 | CC1=CC(C=Cc2ccc(Cl)nc2)=[N+]2C1=Cc1ccc(CCC(=O)O)n1[B-]2(F)F [BAA-39a] | 606 | 657
28 | COc1cc(C=CC2=[N+]3C(=Cc4ccc(C(=Cc5ccc(OCc6cccc(C(F)(F)F)c6)c(OC)c5)CC(=O)O)n4[B-]3(F)F)C(C)=C2)ccc1OCc1cccc(C(F)(F)F)c1 [BAA-40b] | 583 | 601
29 | COc1cc(C=CC2=[N+]3C(=Cc4ccc(C(=Cc5ccc(OCc6ccccc6C)c(OC)c5)CC(=O)O)n4[B-]3(F)F)C(C)=C2)ccc1OCc1ccccc1C [BAA-41b] | 582 | 602
30 | CC1=CC(C=Cc2ccc(OC(=O)c3ccc(Cl)cc3Cl)cc2)=[N+]2C1=Cc1ccc(CCC(=O)O)n1[B-]2(F)F [BAA-42a] | 570 | 580

same assay, conditions: anhydrous DMSO; emission

Row | SMILES | FWHM (full-width-at half max)
31 | CC1=CC(/C=C/c2cc(Cl)ccc2Cl)=[N+]2C1=Cc1ccc(/C(=C\c3cc(Cl)ccc3Cl)CC(=O)O)n1[B-]2(F)F [BAA-29b] | 37
32 | CC1=CC(C=Cc2cn(CCC(=O)O)c3ccccc23)=[N+]2C1=Cc1ccc(CCC(=O)O)n1[B-]2(F)F [BAA-30a] | 58
33 | CC1=CC(C=Cc2cc(F)ccc2O)=[N+]2C1=Cc1ccc(C(=Cc3cc(F)ccc3O)CC(=O)O)n1[B-]2(F)F [BAA-31b] | 34
34 | CC1=CC(C=Cc2ccc(Oc3ccc([N+](=O)[O-])cc3)cc2)=[N+]2C1=Cc1ccc(CCC(=O)O)n1[B-]2(F)F [BAA-32a] | 32
35 | CC1=CC(C=Cc2ccc(Br)cc2S(C)(=O)=O)=[N+]2C1=Cc1ccc(CCC(=O)O)n1[B-]2(F)F [BAA-33a] | 35
36 | CC1=CC(C=Cc2cnc(-c3ccc(Cl)cc3)s2)=[N+]2C1=Cc1ccc(C(=Cc3cnc(-c4ccc(Cl)cc4)s3)CC(=O)O)n1[B-]2(F)F [BAA-34b] | 31
37 | CC1=CC(C=Cc2ccccc2Oc2ccc(C#N)cc2)=[N+]2C1=Cc1ccc(C(=Cc3ccccc3Oc3ccc(C#N)cc3)CC(=O)O)n1[B-]2(F)F [BAA-35b] | 32
38 | CC1=CC(C=Cc2ccc(OCc3sccc3C#N)cc2)=[N+]2C1=Cc1ccc(C(=Cc3ccc(OCc4sccc4C#N)cc3)CC(=O)O)n1[B-]2(F)F [BAA-36b] | 37
39 | CC1=CC(C=Cc2ccc(-c3cccnc3)cc2)=[N+]2C1=Cc1ccc(CCC(=O)O)n1[B-]2(F)F [BAA-37a] | 55
40 | CC1=CC(C=Cc2ccc(-c3cccnc3)cc2)=[N+]2C1=Cc1ccc(C(=Cc3ccc(-c4cccnc4)cc3)CC(=O)O)n1[B-]2(F)F [BAA-37b] | 30
41 | CC1=CC(C=Cc2cccc(N3CCCC3)n2)=[N+]2C1=Cc1ccc(CCC(=O)O)n1[B-]2(F)F [BAA-38a] | 33
42 | CC1=CC(C=Cc2ccc(Cl)nc2)=[N+]2C1=Cc1ccc(CCC(=O)O)n1[B-]2(F)F [BAA-39a] | 79
43 | COc1cc(C=CC2=[N+]3C(=Cc4ccc(C(=Cc5ccc(OCc6cccc(C(F)(F)F)c6)c(OC)c5)CC(=O)O)n4[B-]3(F)F)C(C)=C2)ccc1OCc1cccc(C(F)(F)F)c1 [BAA-40b] | 45
44 | COc1cc(C=CC2=[N+]3C(=Cc4ccc(C(=Cc5ccc(OCc6ccccc6C)c(OC)c5)CC(=O)O)n4[B-]3(F)F)C(C)=C2)ccc1OCc1ccccc1C [BAA-41b] | 47
45 | CC1=CC(C=Cc2ccc(OC(=O)c3ccc(Cl)cc3Cl)cc2)=[N+]2C1=Cc1ccc(CCC(=O)O)n1[B-]2(F)F [BAA-42a] | 30

same assay, conditions: anhydrous DMSO; relative to reference fluorophore at three concentrations

Row | SMILES | φfl (quantum yield)
46 | CC1=CC(/C=C/c2cc(Cl)ccc2Cl)=[N+]2C1=Cc1ccc(/C(=C\c3cc(Cl)ccc3Cl)CC(=O)O)n1[B-]2(F)F [BAA-29b] | 0.13
47 | CC1=CC(C=Cc2cn(CCC(=O)O)c3ccccc23)=[N+]2C1=Cc1ccc(CCC(=O)O)n1[B-]2(F)F [BAA-30a] | 0.43
48 | CC1=CC(C=Cc2cc(F)ccc2O)=[N+]2C1=Cc1ccc(C(=Cc3cc(F)ccc3O)CC(=O)O)n1[B-]2(F)F [BAA-31b] | 0.28
49 | CC1=CC(C=Cc2ccc(Oc3ccc([N+](=O)[O-])cc3)cc2)=[N+]2C1=Cc1ccc(CCC(=O)O)n1[B-]2(F)F [BAA-32a] | 0.23
50 | CC1=CC(C=Cc2ccc(Br)cc2S(C)(=O)=O)=[N+]2C1=Cc1ccc(CCC(=O)O)n1[B-]2(F)F [BAA-33a] | 0.15
51 | CC1=CC(C=Cc2cnc(-c3ccc(Cl)cc3)s2)=[N+]2C1=Cc1ccc(C(=Cc3cnc(-c4ccc(Cl)cc4)s3)CC(=O)O)n1[B-]2(F)F [BAA-34b] | 0.96
52 | CC1=CC(C=Cc2ccccc2Oc2ccc(C#N)cc2)=[N+]2C1=Cc1ccc(C(=Cc3ccccc3Oc3ccc(C#N)cc3)CC(=O)O)n1[B-]2(F)F [BAA-35b] | 0.25
53 | CC1=CC(C=Cc2ccc(OCc3sccc3C#N)cc2)=[N+]2C1=Cc1ccc(C(=Cc3ccc(OCc4sccc4C#N)cc3)CC(=O)O)n1[B-]2(F)F [BAA-36b] | 0.35
54 | CC1=CC(C=Cc2ccc(-c3cccnc3)cc2)=[N+]2C1=Cc1ccc(CCC(=O)O)n1[B-]2(F)F [BAA-37a] | 0.54
55 | CC1=CC(C=Cc2ccc(-c3cccnc3)cc2)=[N+]2C1=Cc1ccc(C(=Cc3ccc(-c4cccnc4)cc3)CC(=O)O)n1[B-]2(F)F [BAA-37b] | 0.55
56 | CC1=CC(C=Cc2cccc(N3CCCC3)n2)=[N+]2C1=Cc1ccc(CCC(=O)O)n1[B-]2(F)F [BAA-38a] | 0.07
57 | CC1=CC(C=Cc2ccc(Cl)nc2)=[N+]2C1=Cc1ccc(CCC(=O)O)n1[B-]2(F)F [BAA-39a] | 0.19
58 | COc1cc(C=CC2=[N+]3C(=Cc4ccc(C(=Cc5ccc(OCc6cccc(C(F)(F)F)c6)c(OC)c5)CC(=O)O)n4[B-]3(F)F)C(C)=C2)ccc1OCc1cccc(C(F)(F)F)c1 [BAA-40b] | 0.26
59 | COc1cc(C=CC2=[N+]3C(=Cc4ccc(C(=Cc5ccc(OCc6ccccc6C)c(OC)c5)CC(=O)O)n4[B-]3(F)F)C(C)=C2)ccc1OCc1ccccc1C [BAA-41b] | 0.36
60 | CC1=CC(C=Cc2ccc(OC(=O)c3ccc(Cl)cc3Cl)cc2)=[N+]2C1=Cc1ccc(CCC(=O)O)n1[B-]2(F)F [BAA-42a] | 0.36
